In PubChem BioAssay (NCI) one finds GI50 and TGI data, which are given here for eleven compounds.

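Each compound was tested at five concentrations against cells in 96-well plates for 48 hours. Abbreviation: GI50, concentration required for 50% inhibition of growth. TGI: concentration producing complete growth inhibition.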

Test systems include CAKI-1 renal; OVCAR-4 ovarian; SK-OV-3 ovarian; OVCAR-8 ovarian; MOLT-4 leukemia; SR leukemia; SN12C renal; SK-MEL-2 melanoma; OVCAR-5 ovarian; HOP-62 NSCLC.
What all share (assay): DTP human tumour cell line panel, 48 h

For the compound `C/C1=C\CC[C@@](C)(O)[C@@H]2CC3[C@@H](OC(=O)C34CC4)[C@@H](O2)[C@H](C)CCC1` (stereo not given in full), the GI50 in the assay on CAKI-1 renal was 18 µM; in the assay on OVCAR-4 ovarian, 38 µM; in the assay on SK-OV-3 ovarian, 55 µM; in the assay with OVCAR-8 ovarian, 18.8 µM; with MOLT-4 leukemia, 39.2 µM; in the assay with SR leukemia it was 19.9 µM. Further, the GI50 in the assay with SN12C renal is 20.3 µM; in the assay with SK-MEL-2 melanoma it was 16.2 µM; in the assay on OVCAR-5 ovarian, 16.1 µM. Besides, the TGI was 34.4 µM in the assay with CAKI-1 renal; > 100 µM in the assay on OVCAR-4 ovarian; > 100 µM in the assay with SK-OV-3 ovarian; 38.1 µM with OVCAR-8 ovarian; > 100 µM in the assay on MOLT-4 leukemia; > 100 µM with SR leukemia. Further, the TGI in the assay with SN12C renal was 43.5 µM; in the assay on SK-MEL-2 melanoma, 34.4 µM; in the assay with OVCAR-5 ovarian, 30.2 µM.
Take `CC[CH2][Pb]([CH2]CC)([CH2]CC)[NH]S(=O)(=O)c1ccc(C)cc1`: the GI50 was 0.0909 µM with HOP-62 NSCLC; 0.0682 µM in the assay on OVCAR-4 ovarian; 0.0788 µM in the assay on SK-OV-3 ovarian; 0.0746 µM in the assay on MOLT-4 leukemia; 0.0522 µM in the assay on SR leukemia; 0.0681 µM in the assay with SN12C renal. Further, the GI50 in the assay on SK-MEL-2 melanoma was 0.0176 µM; in the assay with OVCAR-5 ovarian, 0.0667 µM. Further, the TGI with HOP-62 NSCLC came to 0.422 µM; with OVCAR-4 ovarian, 0.307 µM; in the assay on SK-OV-3 ovarian it was 0.276 µM; in the assay with MOLT-4 leukemia, 4.51 µM; in the assay on SR leukemia it was 0.279 µM; in the assay on SN12C renal, 0.172 µM. The TGI was determined as 0.0436 µM in the assay on SK-MEL-2 melanoma and 0.242 µM in the assay on OVCAR-5 ovarian.
For the compound `COC1CC(n2cnc3c(N)ncnc32)OC1CO` (stereo not given), the TGI in the assay with HOP-62 NSCLC, in the assay with CAKI-1 renal, in the assay on OVCAR-4 ovarian, in the assay with OVCAR-8 ovarian, in the assay with MOLT-4 leukemia and in the assay with SR leukemia was > 100 µM throughout. Besides, the TGI in the assay with SK-MEL-2 melanoma and with OVCAR-5 ovarian was > 100 µM throughout.
Turning to `O=C(Nc1ccc2c(c1)oc(=O)c1ccccc12)C(Cl)Cl`, the TGI with HOP-62 NSCLC, in the assay on CAKI-1 renal, in the assay on OVCAR-8 ovarian, with MOLT-4 leukemia, in the assay on SR leukemia and in the assay with SN12C renal was > 100 µM throughout. Further, the TGI with SK-MEL-2 melanoma and with OVCAR-5 ovarian was > 100 µM in each case.
Consider `C/C(=N\NC(N)=O)C(CN(C)C)C(c1ccccc1)c1c(O)c2ccccc2oc1=O` (stereo not given), for which the TGI in the assay on HOP-62 NSCLC, in the assay with CAKI-1 renal, in the assay with OVCAR-4 ovarian, in the assay on OVCAR-8 ovarian, in the assay on MOLT-4 leukemia and in the assay on SR leukemia was > 100 µM each time. For the same compound, the TGI in the assay on SN12C renal, in the assay with SK-MEL-2 melanoma and in the assay on OVCAR-5 ovarian was > 100 µM in each case.
As to `CCOC(=O)/C(C#N)=C1\N[C@H](C(=O)OCC)CO1`, the TGI in the assay on HOP-62 NSCLC, with CAKI-1 renal, with OVCAR-4 ovarian, with OVCAR-8 ovarian, in the assay on MOLT-4 leukemia and with SR leukemia was > 100 µM each time. Further, the results for the TGI in the assay on SN12C renal, in the assay on SK-MEL-2 melanoma and in the assay on OVCAR-5 ovarian were > 100 µM, 62.6 µM and > 100 µM, respectively.
As to `N/N=C(\Cc1ccccc1)NN=C(N)N`, the TGI in the assay with CAKI-1 renal, with OVCAR-4 ovarian, in the assay with SK-OV-3 ovarian, with OVCAR-8 ovarian, in the assay on MOLT-4 leukemia and with SR leukemia was > 100 µM in each case. Further, the TGI in the assay with SN12C renal, with SK-MEL-2 melanoma and in the assay with OVCAR-5 ovarian was > 100 µM each time.
With `Cc1cc(N2CCCC2)nc(N(CCCNc2ccnc3cc(Cl)ccc23)Cc2ccc3c(c2)OCO3)n1`, the GI50 in the assay with HOP-62 NSCLC was 1.83 µM; in the assay on OVCAR-4 ovarian, 1.86 µM; with SK-OV-3 ovarian it was 4.98 µM; in the assay with OVCAR-8 ovarian, 1.8 µM; in the assay on MOLT-4 leukemia, 1.3 µM; in the assay on SR leukemia, 0.152 µM. Further, the GI50 in the assay on SN12C renal is 1.76 µM; with SK-MEL-2 melanoma, 1.84 µM; in the assay with OVCAR-5 ovarian, 2.46 µM. Further, the TGI in the assay with HOP-62 NSCLC is 10.2 µM; with OVCAR-4 ovarian, 8.22 µM; in the assay with SK-OV-3 ovarian it was 20.3 µM; with OVCAR-8 ovarian it was 5.41 µM; with MOLT-4 leukemia it was 4.64 µM; with SR leukemia, 0.431 µM. The TGI is 11.3 µM in the assay with SN12C renal, 4 µM in the assay on SK-MEL-2 melanoma and 8.92 µM in the assay on OVCAR-5 ovarian.
For the compound `O=C(Cc1ccccc1)N/N=C(\C1=Nc2ccc([N+](=O)[O-])cc2NC1O)C(O)c1ccc([N+](=O)[O-])cc1` (stereo not given), the TGI in the assay on HOP-62 NSCLC, with CAKI-1 renal, with SK-OV-3 ovarian, in the assay with OVCAR-8 ovarian, in the assay with SR leukemia and in the assay on SN12C renal was > 100 µM throughout. For the same compound, the TGI in the assay on SK-MEL-2 melanoma and in the assay with OVCAR-5 ovarian was > 100 µM in each case.
As for `C[C@H](CSC(=O)c1ccccc1)C(=O)N1c2ccccc2C[C@H]1C(=O)O`, the TGI with HOP-62 NSCLC, in the assay on CAKI-1 renal, in the assay on OVCAR-4 ovarian, in the assay on SK-OV-3 ovarian, in the assay on OVCAR-8 ovarian and in the assay on MOLT-4 leukemia was > 100 µM throughout. Moreover, the TGI in the assay with SR leukemia, in the assay on SN12C renal and in the assay with OVCAR-5 ovarian was > 100 µM each time.
With `CS(=O)(=O)Nc1cc(-c2ccc3ncnc(Nc4ccc5c(cnn5Cc5ccc(F)cc5)c4)c3c2)cnc1Cl`, the GI50 is 1.53 µM in the assay with HOP-62 NSCLC; 3.09 µM with OVCAR-4 ovarian; 1.54 µM in the assay with SK-OV-3 ovarian; 3.02 µM in the assay on OVCAR-8 ovarian; 0.801 µM in the assay on MOLT-4 leukemia; 1.71 µM with SR leukemia. Also, the results for the GI50 with SN12C renal, in the assay on SK-MEL-2 melanoma and with OVCAR-5 ovarian were 1.66 µM, 1.09 µM and 1.53 µM, respectively. Further, the TGI in the assay with HOP-62 NSCLC was 41.4 µM; in the assay on OVCAR-4 ovarian, 44 µM; with SK-OV-3 ovarian it was 5.85 µM; in the assay with OVCAR-8 ovarian, > 100 µM; with MOLT-4 leukemia, 3.89 µM; in the assay on SR leukemia, 6.73 µM. Moreover, the TGI was determined as 19.3 µM with SN12C renal, 3.28 µM in the assay on SK-MEL-2 melanoma and 8.84 µM in the assay on OVCAR-5 ovarian.

What is called GI50 is the concentration at which growth is held to half of that of the control. What is called TGI is the concentration at which net growth stops. Read a high TGI as less potent growth arrest.
